The text below walks through data of ChEMBL document CHEMBL1155276, “Anti-listerial activity and structure-activity relationships of the six major tyrocidines, cyclic decapeptides from Bacillus aneurinolyticus” (Bioorg Med Chem, 2009).

For experiment [1], the system named is Listeria monocytogenes. The experiment is described as follows: Antibacterial activity against leucocin A-sensitive Listeria monocytogenes B73 after 16 hrs by broth microdilution assay. In kind it is functional, organism-based. Particulars: B73, 16 h. (In general: In broth dilution the organism is exposed to a series of concentrations in liquid medium.)
Experiment [2] concerns Listeria monocytogenes. Kind of experiment: Antibacterial activity against leucocin A-resistant Listeria monocytogenes B73-MR1 after 16 hrs by broth microdilution assay. To be noted: B73-MR1, 16 h. In kind it is functional, organism-based.
Experiment [3] relates to Micrococcus luteus. Kind of experiment: Antibacterial activity against Micrococcus luteus NCTC 8340 after 16 hrs by micro-gel well diffusion assay. In kind it is functional. For orientation: Agar diffusion results depend on both activity and mobility in agar.
The subject of experiment [4] is Micrococcus luteus. Kind of experiment: Antibacterial activity against Micrococcus luteus NCTC 8340 after 16 hrs by broth microdilution assay. In kind it is functional, organism-based. To be noted: NCTC 8340, 16 h.
The subject of experiment [5] is Listeria monocytogenes. Kind of experiment: Antilysterial activity against leucocin A-sensitive Listeria monocytogenes B73 assessed as bacterial lysis at 10 uM after 60 mins by broth microdilution assay. The experiment is classed as functional.
The subject of experiment [6] is Listeria monocytogenes. The experiment is described as follows: Antilysterial activity against leucocin A-sensitive Listeria monocytogenes B73 assessed as bacterial lysis per min at 10 uM by broth microdilution assay. In kind it is functional.
Experiment [7] concerns Listeria monocytogenes. The experiment is described as follows: Antilysterial activity against leucocin A-sensitive Listeria monocytogenes B73 assessed as bacterial lysis half life at 10 uM by broth microdilution assay. In kind it is functional, organism-based.
The test system of experiment [8] is Listeria monocytogenes. Kind of experiment: Antibacterial activity against leucocin A-resistant Listeria monocytogenes B73-MR1 after 16 hrs by micro-gel well diffusion assay. In kind it is functional.
Experiment [9] has as its system Listeria monocytogenes. Kind of experiment: Antibacterial activity against leucocin A-sensitive Listeria monocytogenes B73 after 16 hrs by micro-gel well diffusion assay. In kind it is functional.
Experiment [10] relates to Escherichia coli. The experiment is described as follows: Antibacterial activity against Escherichia coli HB101 at 200 ug/mL after 16 hrs by broth microdilution assay. The experiment is classed as functional.

For orientation: IC50 means the point on the concentration scale where inhibition reaches its midpoint. A higher IC50 goes with weaker potency in that assay.

Non-standard residues stand in square brackets, D forms with d. Residues, ends and D or L forms follow the SMILES beside them. Orn = NCCC[C@H](N)C(=O)O Some results are limits rather than exact numbers.

Take `CC(C)C[C@@H]1NC(=O)[C@H](CCCN)NC(=O)[C@H](C(C)C)NC(=O)[C@@H]2CCCN2C(=O)[C@@H](Cc2ccccc2)NC(=O)[C@H](CC(C)C)NC(=O)[C@H](CCCN)NC(=O)[C@H](C(C)C)NC(=O)[C@@H]2CCCN2C(=O)[C@@H](Cc2ccccc2)NC1=O` [GRAMICIDIN S] (cyclo(L[dF]PV[Orn]L[dF]PV[Orn])): the concentration for half-maximal inhibition (IC50) in [1] came to 6.6 µM; in experiment [2] it was 3.9 µM; in [4] it was 6.7 µM. The ICmax is 31 µM in experiment [3], 6.2 µM in experiment [8] and 11 µM in experiment [9]. The Activity was 70% in experiment [5] and 1.61% in experiment [6]. For the same compound, the T1/2 in experiment [7] worked out at 38.5 min.

On to `CC(C)C[C@@H]1NC(=O)[C@H](CCCCN)NC(=O)[C@H](C(C)C)NC(=O)[C@H](Cc2ccc(O)cc2)NC(=O)[C@H](CCC(N)=O)NC(=O)[C@H](CC(N)=O)NC(=O)[C@@H](Cc2ccccc2)NC(=O)[C@H](Cc2ccccc2)NC(=O)[C@@H]2CCCN2C(=O)[C@@H](Cc2ccccc2)NC1=O` [TYROCIDINE A1], for which the concentration for half-maximal inhibition (IC50) in experiment [1] turned out to be 18 µM; in experiment [2], 10 µM; in [4] it was 26 µM. The ICmax in experiment [3] amounted to 72 µM; in experiment [8], 16 µM; in experiment [9], 38 µM. The Activity in [5] is 62%; in [10], below 50%; in experiment [6] it was 1.47%. The T1/2 in experiment [7] was 32.2 min.

On to `CC(C)C[C@@H]1NC(=O)[C@H](CCCN)NC(=O)[C@H](C(C)C)NC(=O)[C@H](Cc2ccc(O)cc2)NC(=O)[C@H](CCC(N)=O)NC(=O)[C@H](CC(N)=O)NC(=O)[C@@H](Cc2ccccc2)NC(=O)[C@H](Cc2ccccc2)NC(=O)[C@@H]2CCCN2C(=O)[C@@H](Cc2ccccc2)NC1=O` [TYROCIDINE A] (cyclo(F[dF]NQYV[Orn]L[dF]P)), for which the IC50 in experiment [1] stood at 13 µM; in [2] it was 9.9 µM; in [4] it was 22 µM. The figures for the ICmax in experiment [3], in experiment [8] and in [9] were 70 µM, 16 µM and 25 µM, respectively. In addition, the Activity is 59% in experiment [5], below 50% in experiment [10] and 1.62% in [6]. Moreover, the T1/2 in experiment [7] stood at 32.3 min.

On to `CC(C)C[C@@H]1NC(=O)[C@H](CCCCN)NC(=O)[C@H](C(C)C)NC(=O)[C@H](Cc2ccc(O)cc2)NC(=O)[C@H](CCC(N)=O)NC(=O)[C@H](CC(N)=O)NC(=O)[C@@H](Cc2ccccc2)NC(=O)[C@H](Cc2c[nH]c3ccccc23)NC(=O)[C@@H]2CCCN2C(=O)[C@@H](Cc2ccccc2)NC1=O` [TYROCIDINE B1], for which the results for the IC50 in [1], in experiment [2] and in experiment [4] were 8.1 µM, 6.7 µM and 4.2 µM, respectively. Moreover, the results for the ICmax in [3], in experiment [8] and in experiment [9] were 8.9 µM, 10 µM and 15 µM, respectively. For the same compound, the Activity was 63% in [5], below 50% in experiment [10] and 1.68% in experiment [6]. Moreover, the T1/2 in [7] was 29.6 min.

As to `CC(C)C[C@@H]1NC(=O)[C@H](CCCN)NC(=O)[C@H](C(C)C)NC(=O)[C@H](Cc2ccc(O)cc2)NC(=O)[C@H](CCC(N)=O)NC(=O)[C@H](CC(N)=O)NC(=O)[C@@H](Cc2ccccc2)NC(=O)[C@H](Cc2c[nH]c3ccccc23)NC(=O)[C@@H]2CCCN2C(=O)[C@@H](Cc2ccccc2)NC1=O` [TYROCIDINE B], the concentration for half-maximal inhibition (IC50) in experiment [1] was 10 µM; in experiment [2], 7.7 µM; in experiment [4], 6.5 µM. The ICmax in experiment [3] came out at 9.9 µM; in experiment [8] it was 12 µM; in [9], 15 µM. The Activity is 64% in experiment [5], below 50% in [10] and 1.53% in experiment [6]. Moreover, the T1/2 in experiment [7] was 28.8 min.

`CC(C)C[C@@H]1NC(=O)[C@H](CCCCN)NC(=O)[C@H](C(C)C)NC(=O)[C@H](Cc2ccc(O)cc2)NC(=O)[C@H](CCC(N)=O)NC(=O)[C@H](CC(N)=O)NC(=O)[C@@H](Cc2c[nH]c3ccccc23)NC(=O)[C@H](Cc2c[nH]c3ccccc23)NC(=O)[C@@H]2CCCN2C(=O)[C@@H](Cc2ccccc2)NC1=O` [TYROCIDINE C1]: the concentration for half-maximal inhibition (IC50) in [1] was determined as 9.3 µM; in experiment [2], 7.5 µM; in experiment [4], 7.3 µM. Besides, the ICmax was 15 µM in [3], 16 µM in [8] and 22 µM in [9]. In addition, the Activity in experiment [5] was 60%; in experiment [10], below 50%; in experiment [6] it was 1.55%. For the same compound, the T1/2 in experiment [7] worked out at 27.5 min.

As to `CC(C)C[C@@H]1NC(=O)[C@H](CCCN)NC(=O)[C@H](C(C)C)NC(=O)[C@H](Cc2ccc(O)cc2)NC(=O)[C@H](CCC(N)=O)NC(=O)[C@H](CC(N)=O)NC(=O)[C@@H](Cc2c[nH]c3ccccc23)NC(=O)[C@H](Cc2c[nH]c3ccccc23)NC(=O)[C@@H]2CCCN2C(=O)[C@@H](Cc2ccccc2)NC1=O` [TYROCIDINE C], the concentration for half-maximal inhibition (IC50) in [1] amounted to 9.5 µM; in experiment [2] it was 7 µM; in experiment [4], 6.4 µM. Further, the figures for the ICmax in [3], in [8] and in experiment [9] were 9 µM, 11 µM and 13 µM, respectively. The Activity in [5] is listed as 66%; in experiment [10] it was below 50%; in experiment [6], 1.48%. Further, the T1/2 in [7] amounted to 31.2 min.

`CC(C)C[C@@H]1NC(=O)[C@H](CCCN)NC(=O)[C@H](C(C)C)NC(=O)[C@H](Cc2ccc(O)cc2)N[C@@H](CCC(=O)O)C(=O)N[C@@H](CC(N)=O)C(=O)[C@@H](Cc2ccccc2)NC(=O)[C@H](Cc2ccccc2)NC(=O)[C@@H]2CCCN2C(=O)[C@@H](Cc2ccccc2)NC1=O` [TYROTHRICIN]: the results for the half-maximal inhibitory concentration (IC50) in experiment [1], in experiment [2] and in [4] were 12 µg/mL, 9.7 µg/mL and 3.5 µg/mL, respectively. The ICmax in experiment [3] came out at 6.3 µg/mL; in experiment [8], 29 µg/mL; in [9], 21 µg/mL.
